# Experiments:
# [1] = Half life of compound in HEPES buffer measured at pH 7.5 and 30 DegC by HPLC analysis; assay type: physicochemical
# [2] = Drug degradation in HEPES buffer assessed as decomposition measured at pH 7.5 and 30 DegC after 21 hrs by HPLC analysis; assay type: physicochemical; settings: read-out: Drug degradation
# [3] = Stability of compound in HEPES buffer assessed as hydrolysis measured at pH 7.5 and 30 DegC after 9 hrs by HPLC analysis; assay type: physicochemical; settings: pH 7.5, 9 h
# Escherichia coli = assay: Antimicrobial activity against Escherichia coli K-12 measured after 19 hrs; assay type: functional; settings: K-12, 19 h
half-life [1],degraded at 21 h [2],Stability [3],MIC (Escherichia coli),Structure (SMILES)
0.35 h,,,,CNCC(=O)OCOC(=O)N1CCN(c2cc3c(cc2F)c(=O)c(C(=O)O)cn3C2CC2)CC1
1.6 h,,,,CNCC(=O)OC(C)OC(=O)N1CCN(c2cc3c(cc2F)c(=O)c(C(=O)O)cn3C2CC2)CC1 (stereo not given)
2.4 h,,,,CN[C@H](C(=O)OC(C)OC(=O)N1CCN(c2cc3c(cc2F)c(=O)c(C(=O)O)cn3C2CC2)CC1)C(C)C (stereo not given in full)
> 60 h,20%,,,CC(OC(=O)[C@H](C)NC(=O)c1ccccc1)OC(=O)N1CCN(c2cc3c(cc2F)c(=O)c(C(=O)O)cn3C2CC2)CC1 (stereo not given in full)
> 130 h,10%,,,CC(OC(=O)[C@@H](NC(=O)c1ccccc1)C(C)C)OC(=O)N1CCN(c2cc3c(cc2F)c(=O)c(C(=O)O)cn3C2CC2)CC1 (stereo not given in full)
8.1 h,,Unstable,1 µM,CC(OC(=O)[C@H](C)NC(=O)c1cc(O)c(O)c(C(=O)N[C@H]2COC(=O)[C@@H](NC(=O)c3cccc(O)c3O)COC(=O)[C@@H](NC(=O)c3cccc(O)c3O)COC2=O)c1)OC(=O)N1CCN(c2cc3c(cc2F)c(=O)c(C(=O)O)cn3C2CC2)CC1 (stereo not given in full)
9.9 h,,Unstable,1 µM,CC(OC(=O)[C@@H](NC(=O)c1cc(O)c(O)c(C(=O)N[C@H]2COC(=O)[C@@H](NC(=O)c3cccc(O)c3O)COC(=O)[C@@H](NC(=O)c3cccc(O)c3O)COC2=O)c1)C(C)C)OC(=O)N1CCN(c2cc3c(cc2F)c(=O)c(C(=O)O)cn3C2CC2)CC1 (stereo not given in full)
8.7 h,,,,O=C(NCCCCCC(=O)N1CCN(c2cc3c(cc2F)c(=O)c(C(=O)O)cn3C2CC2)CC1)c1cc(O)c(O)c(C(=O)N[C@H]2COC(=O)[C@@H](NC(=O)c3cccc(O)c3O)COC(=O)[C@@H](NC(=O)c3cccc(O)c3O)COC2=O)c1
,,,0.1 µM,O=C(O)c1cn(C2CC2)c2cc(N3CCNCC3)c(F)cc2c1=O [CIPROFLOXACIN]

# From ChEMBL document CHEMBL3621188, “Evaluation of (acyloxy)alkyl ester linkers for antibiotic release from siderophore-antibiotic conjugates” (Bioorg Med Chem Lett, 2015)
